As a reminder, the pIC50 is the IC50 on a negative log10 scale, so that one unit is a factor of ten. Low values mean a large IC50, high ones a small IC50.

Results on 20 molecules are retold here after patent US9902725B2, “Heterocyclic derivatives as RORgamma modulators” (GENFIT, priority 2014, dated 2018).

For one assay, the target named is T1, human RORγt (Homo sapiens, UniProt P51449).
T1 sequence (P51449 1-497 isoform P51449-2): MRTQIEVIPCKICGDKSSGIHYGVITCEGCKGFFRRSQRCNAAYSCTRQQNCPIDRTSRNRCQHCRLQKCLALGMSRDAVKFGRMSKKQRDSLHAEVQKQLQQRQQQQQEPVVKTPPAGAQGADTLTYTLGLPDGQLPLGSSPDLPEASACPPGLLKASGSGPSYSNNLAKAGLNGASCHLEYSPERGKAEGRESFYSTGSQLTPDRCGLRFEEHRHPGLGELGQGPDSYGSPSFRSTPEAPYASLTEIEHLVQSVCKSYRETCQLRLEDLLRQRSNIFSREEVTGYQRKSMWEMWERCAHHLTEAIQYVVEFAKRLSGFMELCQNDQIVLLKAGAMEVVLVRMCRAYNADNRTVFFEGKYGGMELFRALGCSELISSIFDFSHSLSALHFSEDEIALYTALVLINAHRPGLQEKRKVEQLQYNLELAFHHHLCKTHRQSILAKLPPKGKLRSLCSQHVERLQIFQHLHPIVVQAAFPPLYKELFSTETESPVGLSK
Kind of assay: IL-17 secretion from EL4 murine lymphoma overexpressing human RORγt. It is filed as cell-based. The arrangement: expressed in transfected cells; host or cells: EL-4 murine lymphoma. Particulars: IL-17 secretion inhibition, PMA and ionomycin stimulation, 24 h. As to the method:
Murine EL-4 lymphoma cell line overexpressing human RORγt was used in this functional assay to assess compound ability to inhibit IL-17 cytokine secretion.
EL-4 cells are maintained in a standard culture medium RPMI supplemented with 10% fetal calf serum, 1% sodium pyruvate, 1% essential amino acids and 1% antibiotics at 37° C. in a humidified atmosphere of 5% CO2 and 95% air. Culture medium was changed every 2 days. EL4 cells were transfected with a plasmid encoding hRORγt (sequence identical to published sequence NM 001001523). […] Briefly, 1 μg of DNA/1 million cells was served to transfect EL-4 cells. Cell/DNA suspension was transferred into certified cuvette and the electroporation of RORγt plasmid was carried out using appropriate Nucleofector® program.
Cells were seeded in 96 well plates at a density of 150000 cells/well then treated with compounds of this invention at indicated concentrations and incubated for 24 hours at 37° C. in a humidified atmosphere of 5% CO2 and 95% air. EL-4 cells were pretreated with test compounds (RORγ modulators) and stimulated with PMA (10 ng/mL) and ionomycin (1 μM final concentration) in the presence of test compound concentrations for additional 24 h at 37° C. in a humidified atmosphere of 5% CO2 and 95% air. Subsequently, supernatants were collected (after centrifugation at 300 g for 10 minutes) to determine the concentrations of IL-17 by HTRF (CisBio, France) or ELISA (R&D Systems Europe) according to the manufacturer's protocols.

For assay [1], the target named is T2, RORγt ligand-binding domain (RORγt-LBD) (Homo sapiens, UniProt P51449).
T2 construct: 20 nM recombinantly expressed RORγ-LBD fused to GST
T2 sequence (P51449 269-508 limits assumed): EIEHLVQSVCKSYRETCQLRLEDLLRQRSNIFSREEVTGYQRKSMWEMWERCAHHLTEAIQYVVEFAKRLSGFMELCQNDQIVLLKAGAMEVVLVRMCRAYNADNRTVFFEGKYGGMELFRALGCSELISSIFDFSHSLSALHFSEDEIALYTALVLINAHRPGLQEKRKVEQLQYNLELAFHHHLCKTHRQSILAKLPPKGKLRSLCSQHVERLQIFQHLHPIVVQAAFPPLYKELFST
Kind of assay: Time-resolved FRET (TR-FRET) RORγt coactivator assay. It is filed as biochemical. Particulars: GST-RORγ-LBD, biotinylated RIP140 peptide, coactivator displacement.

The structures appear in SMILES notation. pIC50: −log10 of the molar value.

In the case of `Cc1ccc(N2CCCCC2)c(C(NC(=O)Cc2ccc3[nH]cc(CCC(=O)O)c3c2)c2ccccc2)c1` (stereo not shown) [compound 114, 3-{5-[({[5-methyl-2-(piperidin-1-yl)phenyl](phenyl)methyl}carbamoyl)methyl]-1H-indol-3-yl}propanoic acid], the negative-log IC50 (pIC50) against human RORγt is 5.00 to 6.00; in assay [1], greater than 6.00.

`Cc1ccc(C(NC(=O)Cc2ccc3[nH]cc(CCC(=O)O)c3c2)c2ccccc2N2CCCCC2)o1` (stereo not shown) [compound 148, 3-[5-({[(5-methylfuran-2-yl)[2-(piperidin-1-yl)phenyl]methyl]carbamoyl}methyl)-1H-indol-3-yl]propanoic acid]: the pIC50 at human RORγt is 5.00 to 6.00; in assay [1], greater than 6.00.

For `COC(=O)Cc1c[nH]c2ccc(CC(=O)NC(c3ccccc3)c3ccc(C)cc3N3CCCCC3)cc12` (stereo not shown) [Cpd. 86, methyl 2-{5-[({[4-methyl-2-(piperidin-1-yl)phenyl](phenyl)methyl}carbamoyl)methyl]-1H-indol-3-yl}acetate], the pIC50 (on human RORγt; in assay [1]) was greater than 6.00 in each case.

`COC(=O)Cc1c[nH]c2ccc(CC(=O)NC(c3ccccc3)c3ccc(C)cc3N3CCOCC3)cc12` (stereo not shown) [Cpd. 96, methyl 2-{5-[({[4-methyl-2-(morpholin-4-yl)phenyl](phenyl)methyl}carbamoyl)methyl]-1H-indol-3-yl}acetate]: the pIC50 at human RORγt is 5.00 to 6.00; in assay [1] it was greater than 6.00.

With `CCNc1cc(C)ccc1C(NC(=O)Cc1ccc2[nH]cc(CCC(=O)OC(C)(C)C)c2c1)c1ccccc1` (stereo not shown) [Cpd. 119, tert-butyl 3-{5-[({[2-(ethylamino)-4-methylphenyl](phenyl)methyl}carbamoyl)methyl]-1H-indol-3-yl}propanoate], the pIC50 is 5.00 to 6.00 against human RORγt and greater than 6.00 in assay [1].

With `CCOC(=O)CCCCc1c[nH]c2ccc(CC(=O)NC(c3ccccc3)c3ccccc3N3CCCCC3)cc12` (stereo not shown) [Cpd. 216, ethyl 5-{5-[({phenyl[2-(piperidin-1-yl)phenyl]methyl}carbamoyl)methyl]-1H-indol-3-yl}pentanoate], the pIC50 at human RORγt is 5.00 to 6.00; in assay [1], greater than 6.00.

Turning to `Cc1ccc(C(NC(=O)Cc2ccc3[nH]cc(CC(=O)N(C)C)c3c2)c2ccccc2)c(N2CCOCC2)c1` (stereo not shown) [compound 112, N,N-dimethyl-2-{5-[({[4-methyl-2-(morpholin-4-yl)phenyl](phenyl)methyl}carbamoyl)methyl]-1H-indol-3-yl}acetamide], the pIC50 against human RORγt is 5.00 to 6.00; in assay [1] it was greater than 6.00.

Regarding `CC(C)(C)OC(=O)CCc1c[nH]c2ccc(CC(=O)NC(c3ccccc3)c3ccccc3N3CCCC3)cc12` (stereo not shown) [Cpd. 78, tert-butyl 3-{5-[({phenyl[2-(pyrrolidin-1-yl)phenyl]methyl}carbamoyl)methyl]-1H-indol-3-yl}propanoate], the pIC50 (against human RORγt; in assay [1]) was 5.00 to 6.00 in each case.

Turning to `COC(=O)Cc1c[nH]c2ccc(CC(=O)NC(c3ccccc3)c3ccc(Cl)cc3N3CCCC3)cc12` (stereo not shown) [Cpd. 84, methyl 2-{5-[({[4-chloro-2-(pyrrolidin-1-yl)phenyl](phenyl)methyl}carbamoyl)methyl]-1H-indol-3-yl}acetate], the pIC50 on human RORγt is 5.00 to 6.00; in assay [1], greater than 6.00.

As for `CC(C)CC(NC(=O)Cc1ccc2[nH]cc(CCC(=O)O)c2c1)c1ccccc1N1CCCCCC1` (stereo not shown) [compound 198, 3-{5-[({1-[2-(azepan-1-yl)phenyl]-3-methylbutyl}carbamoyl)methyl]-1H-indol-3-yl}propanoic acid], the pIC50 is 5.00 to 6.00 on human RORγt and greater than 6.00 in assay [1].

As for `Cc1cccc(C(NC(=O)Cc2ccc3[nH]cc(CCC(=O)O)c3c2)c2ccccc2)c1N1CCCCC1` (stereo not shown) [compound 202, 3-{5-[({[3-methyl-2-(piperidin-1-yl)phenyl](phenyl)methyl}carbamoyl)methyl]-1H-indol-3-yl}propanoic acid], the pIC50 at human RORγt is 5.00 to 6.00; in assay [1], greater than 6.00.

In the case of `COC(=O)Cc1c[nH]c2ccc(CC(=O)NC(c3ccccc3)c3ccc(C(F)(F)F)cc3N3CCCC3)cc12` (stereo not shown) [Cpd. 88, methyl 2-{5-[({phenyl[2-(pyrrolidin-1-yl)-4-(trifluoromethyl)phenyl]methyl}carbamoyl)methyl]-1H-indol-3-yl}acetate], the pIC50 on human RORγt is 5.00 to 6.00; in assay [1] it was greater than 6.00.

Take `O=C(O)CCc1c[nH]c2ccc(CC(=O)NC(CC3CCCCC3)c3ccccc3N3CCCCC3)cc12` (stereo not shown) [compound 162, 3-{5-[({2-cyclohexyl-1-[2-(piperidin-1-yl)phenyl]ethyl}carbamoyl)methyl]-1H-indol-3-yl}propanoic acid]: the negative-log IC50 (pIC50) (against human RORγt; in assay [1]) was 5.00 to 6.00 in each case.

In the case of `CCNc1cc(C)ccc1C(NC(=O)Cc1ccc2[nH]cc(CCC(=O)O)c2c1)c1ccccc1` (stereo not shown) [compound 120, 3-{5-[({[2-(ethylamino)-4-methylphenyl](phenyl)methyl}carbamoyl)methyl]-1H-indol-3-yl}propanoic acid], the results for the pIC50 (against human RORγt; in assay [1]) were 5.00 to 6.00 and greater than 6.00, respectively.

Turning to `Cc1ccc(C(NC(=O)Cc2ccc3[nH]cc(CCC(=O)O)c3c2)c2ccc(C)s2)c(N2CCCCC2)c1` (stereo not shown) [compound 138, 3-{5-[({[4-methyl-2-(piperidin-1-yl)phenyl](5-methylthiophen-2-yl)methyl}carbamoyl)methyl]-1H-indol-3-yl}propanoic acid], the pIC50 was 5.00 to 6.00 against human RORγt and greater than 6.00 in assay [1].

Consider `Cc1cc(Br)ccc1C(NC(=O)Cc1ccc2[nH]cc(CCC(=O)OC(C)(C)C)c2c1)c1ccccc1` (stereo not shown) [Cpd. 43, tert-butyl 3-[5-({[(4-bromo-2-methylphenyl)(phenyl)methyl]carbamoyl}methyl)-1H-indol-3-yl]propanoate], for which the pIC50 was 4.52 to 5.00 at human RORγt and 5.00 to 6.00 in assay [1].

`COc1ccc(C(NC(=O)Cc2ccc3[nH]cc(CCC(=O)OC(C)(C)C)c3c2)c2ccccc2)c(N2CCCCC2)c1` (stereo not shown) [Cpd. 110, tert-butyl 3-{5-[({[4-methoxy-2-(piperidin-1-yl)phenyl](phenyl)methyl}carbamoyl)methyl]-1H-indol-3-yl}propanoate]: the pIC50 at human RORγt is 5.00 to 6.00; in assay [1], greater than 6.00.

`CNC(=O)CCc1c[nH]c2ccc(CC(=O)NC(c3ccccc3)c3ccccc3N3CCCCC3)cc12` (stereo not shown) [compound 115, N-methyl-3-{5-[({phenyl[2-(piperidin-1-yl)phenyl]methyl}carbamoyl)methyl]-1H-indol-3-yl}propanamide]: the figures for the pIC50 (on human RORγt; in assay [1]) were 5.00 to 6.00 and greater than 6.00, respectively.

For `CC(C)(C)OC(=O)CCc1c[nH]c2ccc(CC(=O)NC(c3ccccc3)c3ccc(Br)cc3N3CCCC3)cc12` (stereo not shown) [Cpd. 49, tert-butyl 3-{5-[({[4-bromo-2-(pyrrolidin-1-yl)phenyl](phenyl)methyl}carbamoyl)methyl]-1H-indol-3-yl}propanoate], the pIC50 (on human RORγt; in assay [1]) was 5.00 to 6.00 each time.

As to `CCOc1ccc(C(NC(=O)Cc2ccc3[nH]cc(CCC(=O)O)c3c2)c2ccccc2)c(N2CCCCC2)c1` (stereo not shown) [compound 150, 3-{5-[({[4-ethoxy-2-(piperidin-1-yl)phenyl](phenyl)methyl}carbamoyl)methyl]-1H-indol-3-yl}propanoic acid], the pIC50 against human RORγt was 5.00 to 6.00; in assay [1] it was greater than 6.00.
